Test results reported in patent US20150191484A1, “NOVEL COMPOUNDS HAVING A TETRACYCLIC IRIDOID SKELTON AND AN ANTI-TRYPANOSOMAL AGENT COMPRISING THE SAME AS AN ACTIVE INGREDIENT” (NATIONAL UNIVERSITY CORPORATION TOKYO MEDICAL AND DENTAL …, priority 2014, published 2015).

What was measured:
[1] = MTT cytotoxicity assay, THP-1; type: cell-based, human; conditions: human, THP-1 leukemia cells; THP-1 leukemia, 48 h, MTT
Experimental: (§1) The cytotoxic activity of natural products against mammalian cells is an important point in the search for active compounds with biological activity. […] In order to confirm the selective and potent anti-trypanosomal activity of ML-2-2 and ML-2-3, we examined their cytotoxicity in a panel of human cell lines including two human fibroblastic and 8 human cancer-derived cell lines. Cells were seeded in 96-well microplates and incubated with ML-2-2 and ML-2-3 for 48 h at 37° C. in a 5% CO2 humidified incubator. The viabilities of cells were determined with the MTT (3-(4,5-dimethylthiazol-2-yl)-2-5-diphenyltetrazolium bromide) assay. The selectivity index (SI) was determined using the following equation: IC50 against human cells/IC50 against T. brucei. The IC50 values of ML-2-3 were higher than those of ML-2-2 in all the cell lines examined. […] The SI of ML-2-2 indicates values below 1.00 in most cell lines. On the other hand, SI values of ML-2-3 were much higher than those of ML-2-2 in all tested cell lines.

THP-1 (leukemia) = assay: MTT cytotoxicity assay, THP-1; type: cell-based, human; conditions: IC50 against THP-1 / IC50 against T. brucei
Experimental: as §1

For `COc1cc(/C=C2/C(=O)O[C@]34C=C[C@@H]5C(C(=O)O)=CO[C@H](O[C@@H]23)[C@@H]54)ccc1O` [ML-2-3, (3aS,4aR,4a^1S,7aS,9aS,3E)-3-(4-hydroxy-3-methoxybenzylidene)-2-oxo-2,3,3a,4a,4a^1,7a-hexahydro-1,4,5-trioxadicyclopenta[a,hi]indene-7-carboxylic acid], the IC50 at 48 h [1] was 15.4 µM and the “SI (selectivity index)” value (THP-1 (leukemia)) was 4.11.
